Laboratory results from patent US11414381B2, “Fluorinated imide salt compound and surfactant” (Mitsubishi Materials Electronic Chemicals Co., Ltd., priority 2018, dated 2022).

Key:
[1] = Dissolution in water when preparing the aqueous test solutions; type: physicochemical
Description: (§1) Each of the compounds was mixed with water so that an aqueous solution having a concentration of 1,000 ppm by mass was prepared. By measuring the surface tension of the prepared aqueous solution, the surface activity was evaluated. The surface tension was measured by the Wilhelmy method using an automatic surface tensiometer CBVP-Z manufactured by Kyowa Interface Science Co., LTD. […] Therefore, in Comparative Example 2, the surface tension was measured in the saturated state.
(§2) Each of the compounds was mixed with water so that an aqueous solution having a concentration of 10% by mass was prepared. The prepared aqueous solution was stored for 20 days in a room adjusted to 20° C. to 25° C. By calculating a decomposition rate of the compound from ^19F—NMR spectra of the compound in the aqueous solution that were obtained before and after the storage, the stability in water was evaluated. The decomposition rate was calculated by the following formula. A compound having a decomposition rate of 3% or less was described as “No decomposition”. […] Therefore, in Comparative Example 2, the stability in water was evaluated in the saturated state. Decomposition rate (%)={1-(integration value of ^19F—NMR spectrum after storage/integration value of ^19F—NMR spectrum before storage)}×100

[2] = Surface activity: surface tension of aqueous solution, Wilhelmy method; type: physicochemical
Description: as §1

[3] = Stability in water: decomposition rate from 19F-NMR before and after storage; type: physicochemical; conditions: stored 20 days at 20° C. to 25° C.
Description: as §2

[4] = Surface tension-reducing ability, background comparison with PFOA / PFOS; type: physicochemical; conditions: study conducted by the inventors
[5] = according to Japanese Patent No. 4080998; cited from earlier work

SMILES: O=S(=O)([O-])C(F)(F)C(F)(F)C(F)(F)C(F)(F)C(F)(F)C(F)(F)C(F)(F)C(F)(F)F.[K+] [Comparative Example 2, potassium salt of perfluorooctanesulfonic acid (PFOS)]
- Dissolution in water ([1]; mixed with water for 10% by mass): formed a saturated aqueous solution without being completely dissolved in water
- Dissolution in water ([1]; mixed with water for 1,000 ppm by mass): formed a saturated aqueous solution without being completely dissolved in water
- Surface tension ([2]; saturated aqueous solution (not completely dissolved)): 41 (saturated) mN/m
- Stability in water ([3]; saturated aqueous solution): No decomposition (A compound having a decomposition rate of 3% or less was described as “No decomposition”)

SMILES: O=S(=O)([N-]S(=O)(=O)C(F)(F)C(F)(F)C(F)(F)C(F)(F)F)C(F)(F)C(F)(F)C(F)(F)C(F)(F)F.[K+] [Comparative Example 1, bis(perfluorobutanesulfonyl)imide potassium salt]
- Surface tension ([2]; aqueous solution, concentration 1,000 ppm by mass): 43 mN/m
- Stability in water ([3]; 10% by mass aqueous solution): No decomposition (A compound having a decomposition rate of 3% or less was described as “No decomposition”)

SMILES: N.O=S(=O)(NS(=O)(=O)C(F)(F)C(F)(F)C(F)(F)C(F)(F)F)C(F)(F)C(F)(F)C(F)(F)C(F)(F)F [ammonium bis(perfluorobutanesulfonyl)imide]
- Surface tension-reducing ability compared to PFOS [4]: lower than that of PFOS
- Ability to reduce surface tension compared to ammonium salt of PFOA [5]: more able to reduce surface tension than the ammonium salt of perfluorooctanoic acid (PFOA)
